# Laboratory results published in US20230123334A1, “AMINO LIPID COMPOUND, PREPARATION METHOD THEREFOR, AND APPLICATION THEREOF” (SHENZHEN SHENXIN BIOTECHNOLOGY CO., LTD., priority 2020, published 2023).
# System: HEK293 cells
# Assay: Preliminary screening as mRNA vectors, EGFP mRNA transfection of HEK293 cells
# Assay type: cell-based
# Conditions: EGFP mRNA 50 ng per well, 96-well plates; percentage of GFP fluorescent cells relative to total number of cells (Hoechst)
# How it was run: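 Each well of HEK293 cells received 50 ng of EGFP mRNA. Efficiency was expressed as percent GFP-expressing cells over Hoechst-defined total cell number.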
row,SMILES,Absolute mRNA transfection efficiency in HEK293 cells [%]
1,CCCCCCCCCCCCCCCCCCNc1nc(NCCCN2CCOCC2)nc(SCCCCCCCCCCCCCCC)n1 [Compound D8S15N18],0.4
2,CCCCCCCCCCCCCNc1nc(NCCN(C)C)nc(SCCCCCCCCCCC)n1 [Compound D1S11N13],12.6
3,CCCCCCCSc1nc(NCCCCCC)nc(NCCCN2CCN(C)CC2)n1 [Compound D9S7N6],0.8
4,CCCCCCCCCCCCCCCCCCNc1nc(NCCN2CCCC2)nc(SCCCCCCCCC)n1 [Compound D3S9N18],26.7
5,CCCCCCCCCCCSc1nc(NCC2CCN(C)CC2)nc(SCCCCCCCC)n1 [Compound D10S8S11],67.0
6,CCCCCCCCCCCSc1nc(NCCN(C)C)nc(SCCCCCCC)n1 [Compound D1S7S11],4.1
7,CCCCCCCCCCCCCCCCCCNc1nc(NCCCN2CCN(C)CC2)nc(SCCCCCCCCCCCCCCCC)n1 [Compound D9S16N18],0.1
8,CCCCCCCCCCCCCCSc1nc(NCCCCCCCC)nc(NCCN(C)C)n1 [Compound D1S14N8],56.7
9,CCCCCCCCSc1nc(NCCN2CCN(C)CC2)nc(SCCCCCCCC)n1 [Compound D5S8S8],45.2
10,CCCCCCCCCCCCNc1nc(NCCN2CCN(C)CC2)nc(SCCCCCCCCC)n1 [Compound D5S9N12],24.6
11,CCCCCCCCCCCCCCCNc1nc(NCC2CCN(C)CC2)nc(SCCCCCCCC)n1 [Compound D10S8N15],53.3
12,CCCCCCCCCCCCCCCCCCNc1nc(NCCCN2CCOCC2)nc(SCCCCCCCCCCCCCCCC)n1 [Compound D8S16N18],0.0
13,CCCCCCCCCNc1nc(NCCN2CCOCC2)nc(SCCCCCC)n1 [Compound D2S6N9],0.8
14,CCCCCCCCCCCCNc1nc(NCCN2CCCC2)nc(SCCCCCCCCCC)n1 [Compound D3S10N12],19.1
15,CCCCCCCCCCCCCCCCSc1nc(NCCCCCC)nc(NCCN2CCN(C)CC2)n1 [Compound D5S16N6],63.2
16,CCCCCCCCCCCCCCCCSc1nc(NCCCN2CCOCC2)nc(N(CCCCCCCCCCCC)CCCCCCCCCCCC)n1 [D8S16^2N12],0.0
17,CCCCCCCCCCCSc1nc(NCCCCCCC)nc(NCCN2CCOCC2)n1 [Compound D2S11N7],8.5
18,CCCCCCCSc1nc(NCCCN2CCN(C)CC2)nc(SCCCCCCC)n1 [Compound D9S7S7],18.3
19,CCCCCCCCCCCCSc1nc(NCCN2CCCCC2)nc(SCCCCCCC)n1 [Compound D4S7S12],9.2
20,CCCCCCCNc1nc(NCCCN2CCN(C)CC2)nc(SCCCCCC)n1 [Compound D9S6N7],2.6
21,CCCCCCCCCCCCCCSc1nc(NCC2CCN(C)CC2)nc(SCCCCCC)n1 [Compound D10S6S14],54.4
22,CCCCCCCCCCCCN(CCCCCCCCCCCC)c1nc(NCCCN2CCN(C)CC2)nc(SCCCCCCCC)n1 [D9S8^2N12],0.6

row,SMILES,Absolute mRNA transfection efficiency in HEK293 cells [%]
1,CCCCCCCCCCSc1nc(NCCCCCCCCC)nc(NCCN2CCCCC2)n1 [Compound D4S10N9],0.2
2,CCCCCCCCCCCCCNc1nc(NCCN2CCN(C)CC2)nc(SCCCCCCCCCCC)n1 [Compound D5S11N13],11.2
3,CCCCCCCCCCCCCCCCCCSc1nc(NCCCCCCCCCCCC)nc(NCCCN2CCOCC2)n1 [Compound D8S18N12],0.4
4,CCCCCCCCCCCCN(CCCCCCCCCCCC)c1nc(NCCCN2CCOCC2)nc(SCCCCCCCCCC)n1 [D8S10^2N12],0.0
5,CCCCCCCCCCCNc1nc(NCCN2CCOCC2)nc(SCCCCCCCCCCC)n1 [Compound D2S11N11],0.6
6,CCCCCCCCCCCCCCCCSc1nc(NCCCCCCCCCCCCCCC)nc(NCCN2CCN(C)CC2)n1 [Compound D5S16N15],0.1
7,CCCCCCCCCCCCCCCCNc1nc(NCCCN2CCN(C)CC2)nc(SCCCCCCCCCCCCCCC)n1 [Compound D9S15N16],2.7
8,CCCCCCCCNc1nc(NCCN2CCCC2)nc(SCCCCCCC)n1 [Compound D3S7N8],1.3
9,CCCCCCCCCCCCCCCCCCNc1nc(NCCN2CCOCC2)nc(SCCCCCCCCCCCCCCC)n1 [Compound D2S15N18],0.3
10,CCCCCCCCCSc1nc(NCCCCCC)nc(NCCN2CCCC2)n1 [Compound D3S9N6],0.2
11,CCCCCCCCCCCCN(CCCCCCCCCCCC)c1nc(NCCN2CCCC2)nc(SCCCCCCCCCC)n1 [D3S10^2N12],0.1
12,CCCCCCCCCCCCCCCCSc1nc(NCCCCCCCCCCC)nc(NCCN2CCN(C)CC2)n1 [Compound D5S16N11],45.0
13,CCCCCCCCCCCCCCCCSc1nc(NCCCCCCCCCCCC)nc(NCCN(C)C)n1 [Compound D1S16N12],3.0
14,CCCCCCCCCCCCCCCCNc1nc(NCCN2CCOCC2)nc(SCCCCCCC)n1 [Compound D2S7N16],2.6
15,CCCCCCCCCCCCCCCNc1nc(NCCCN(C)C)nc(SCCCCCC)n1 [Compound D6S6N15],12.1
16,CCCCCCCCCCCCCCCCCCSc1nc(NCCCCCCCCCCCCC)nc(NCCCN2CCN(C)CC2)n1 [Compound D9S18N13],0.0
17,CCCCCCCCCCCCN(CCCCCCCCCCCC)c1nc(NCCCN2CCN(C)CC2)nc(SCCCCCCCCCC)n1 [D9S10^2N12],0.3
18,CCCCCCCCSc1nc(NCCCCCCC)nc(NCCCN2CCN(C)CC2)n1 [Compound D9S8N7],1.4
19,CCCCCCCCCCCNc1nc(NCCN2CCN(C)CC2)nc(SCCCCCCC)n1 [Compound D5S7N11],8.2
20,CCCCCCCCCCCCNc1nc(NCCN(C)C)nc(SCCCCCCCCC)n1 [Compound D1S9N12],30.2
21,CCCCCCCCCCCCCCCSc1nc(NCCCCCCCCCCCC)nc(NCCN(C)C)n1 [Compound D1S15N12],4.8
22,CCCCCCCCCCCCNc1nc(NCCCN2CCOCC2)nc(SCCCCCCCC)n1 [Compound D8S8N12],3.8

row,SMILES,Absolute mRNA transfection efficiency in HEK293 cells [%]
1,CCCCCCCCCCCSc1nc(NCCCCCCC)nc(NCCN(CC)CC)n1 [Compound D7S11N7],11.8
2,CCCCCCCCCSc1nc(NCCCCCCC)nc(NCCN(CC)CC)n1 [Compound D7S9N7],1.6
3,CCCCCCCCCCCSc1nc(NCCCN2CCN(C)CC2)nc(SCCCCCCC)n1 [Compound D9S7S11],80.0
4,CCCCCCCCCCCCSc1nc(NCCCCCCC)nc(NCCN(CC)CC)n1 [Compound D7S12N7],13.1
5,CCCCCCCCCCCCCCCCCCSc1nc(NCCN(C)C)nc(SCCCCCC)n1 [Compound D1S6S18],15.9
6,CCCCCCCCCCCCCCCCCCSc1nc(NCCCCCCCCCCCCCCC)nc(NCCN2CCN(C)CC2)n1 [Compound D5S18N15],0.1
7,CCCCCCCCCCCCCCCCNc1nc(NCCN(C)C)nc(SCCCCCC)n1 [Compound D1S6N16],3.3
8,CCCCCCCCCCSc1nc(NCCCCCCCCC)nc(NCC2CCN(C)CC2)n1 [Compound D10S10N9],4.2
9,CCCCCCCCCCCCCCCCSc1nc(NCCCCCCCCC)nc(NCCN2CCOCC2)n1 [Compound D2S16N9],7.2
10,CCCCCCCCCCCCCCCNc1nc(NCCN2CCCC2)nc(SCCCCCCCCCCCCCC)n1 [Compound D3S14N15],3.6
11,CCCCCCCCNc1nc(NCCN(CC)CC)nc(SCCCCCC)n1 [Compound D7S6N8],3.5
12,CCCCCCCCCCCCCNc1nc(NCCN2CCCCC2)nc(SCCCCCCCCC)n1 [Compound D4S9N13],10.8
13,CCCCCCCCCCSc1nc(NCCN(CC)CC)nc(SCCCCCCC)n1 [Compound D7S7S10],1.7
14,CCCCCCCCCCCCCCCCCCSc1nc(NCCCCCCCCCCCC)nc(NCCCN2CCN(C)CC2)n1 [Compound D9S18N12],1.7
15,CCCCCCCCCCCCCCCCCCSc1nc(NCCCCCCCCC)nc(NCCN(CC)CC)n1 [Compound D7S18N9],1.9
16,CCCCCCCCSc1nc(NCCCCCC)nc(NCCN(CC)CC)n1 [Compound D7S8N6],0.8
17,CCCCCCCCCCCCCCCSc1nc(NCCCCCCCCCCC)nc(NCCN2CCCCC2)n1 [Compound D4S15N11],1.0
18,CCCCCCCCCCCCN(CCCCCCCCCCCC)c1nc(NCCN(C)C)nc(SCCCCCCC)n1 [D1S7^2N12],0.7
19,CCCCCCCCCCCSc1nc(NCCN(C)C)nc(SCCCCCCCC)n1 [Compound D1S8S11],3.0
20,CCCCCCCCCCCCCCCCSc1nc(NCCCCCC)nc(NCC2CCN(C)CC2)n1 [Compound D10S16N6],86.9
21,CCCCCCCCCCCCCCCCCCSc1nc(NCCCCCCCC)nc(NCCN2CCN(C)CC2)n1 [Compound D5S18N8],33.4
22,CCCCCCCCCCCCCCCCSc1nc(NCCCCCCCC)nc(NCCN(CC)CC)n1 [Compound D7S16N8],6.5
